Reference: patent US12384821B2, “Antimicrobial peptides and compositions, methods, articles and kits relating thereto” (George Mason University, priority 2020, dated 2025)
Like-named read-outs stand apart in the source and are kept apart here. Where no end group is shown, it is not given here.

Tests used:
[1] = tested on: carbapenem-resistant K. pneumoniae strain (ATCC BAA-1705); type: cell-based, Klebsiella pneumoniae; details: for MIC (μM) / MIC (μg/mL): ATCC BAA-1705; for Antibacterial activity against CRKP (in words): CA-MHB, high salt test conditions
Protocol: Klebsiella pneumoniae ATCC BAA-1705 was purchased from the American Type Culture Collection (Manassas, VA) and grown in Cation-Adjusted Mueller Hinton Broth. Bacteria were aliquoted and frozen at −80° C. with 20% glycerol and enumerated via serial dilution and plating prior to experimentation.
The minimum inhibitory concentration (MIC) of the peptides was determined according to Clinical & Laboratory Standards Institute (CLSJ) guidelines. Bacteria were grown overnight on Cation-adjusted Mueller Hinton Agar (BD 211438, CAMHA) at 37° C. Assays were performed in Cation-adjusted Mueller Hinton Broth (BD 212322, CAMHB) in polypropylene 96 well plates (Corning 3879). Each experiment was performed with three replicates at least three times.

CRKP infected waxworms = experiment: Waxworm infection model (CRKP infected G. mellonella); type: in vivo, Galleria mellonella
Protocol: FIG. 5 is a graph showing waxworm survival curves. Waxworms were injected with 10 μL containing 5×10^5 CFU in their rear left proleg. The waxworms were allowed to recover for 30 minutes at 37° C. They were injected with 10 μL containing the various treatments. They were kept at 37° C. and scored for survival every 24 hours. Each group contained 10 waxworms.
Galleria mellonella larvae were obtained from Vanderhorst Wholesale (Saint Marys, OH, USA). 10 larvae weighing between 250 and 300 mg were randomly assigned to each group. Waxworms were injected with 10 μL containing […] suspended in DPBS in their rear left proleg. The waxworms were then allowed to recover for 30 minutes at 37° C. They were then injected with 10 μL DPBS containing the various treatments into their rear right proleg. They were then kept at 37° C. and scored for survival every 24 hours.
(§1) We tested these antimicrobial peptides in the waxworm, G. mellonella.

G. mellonella = tested on: G. mellonella; set-up: species or system Galleria mellonella; details: in vivo
Excerpt: as §1

[2] = tested on: K. pneumoniae strain ATCC BAA-1705; experiment: DiSC3(5) membrane depolarization assay; type: cell-based, Klebsiella pneumoniae; details: PBS, 100, 10 and 1 μg/ml, 20 min
Protocol: FIGS. 2A-2B are graphs showing (A) membrane disruption as measured by ethidium bromide uptake against K. pneumoniae strain ATCC BAA-1705 in PBS at 50 μg/ml. Δ RFU shown is after 20 min incubation, done twice in triplicate. A one-way ANOVA with multiple comparisons was performed to determine statistical significance (* p<0.05; ** p<0.01; *** p<0.001); and (B) membrane depolarization Membrane depolarization was measures using 3,3′-dipropylthiadicarbocyanine iodide (DiSC3(5)) against K. pneumoniae strain ATCC BAA-1705 in PBS at 100, 10 and 1 μg/ml. Δ RFU shown is after 20 min incubation, done twice in triplicate. DRGN-6 refers to SEQ ID NO:6, DRGN-7 refers to SEQ ID NO:6 with N-terminus acetylated, DRGN-8 refers to SEQ ID NO:7, NACATH refers to SEQ ID NO:9.
Membrane depolarization was measured using DiSC3(5) (3,3′-dipropylthiadicarbocyanine iodide) as previously described with some modifications. Stocks of enumerated frozen Klebsiella pneumonia ATCC BAA-1705 were pelleted and washed twice in phosphate buffered saline (PBS) and then resuspended to 4×10^7 CFU/ml in PBS containing 50 μg/ml DiSC3(5). […] The plate was incubated in a fluorescence spectrophotometer (Tecan Infinite 200) and monitored until fluorescence stopped decreasing. […] Readings were taken at 20 minutes after addition of peptide (excitation=635 nm; emission=670 nm). […]

[3] = Circular dichroism spectroscopy, percent alpha-helicity; type: physicochemical; details: 100 μg/mL peptide
Protocol: Circular dichroism (CD) analysis of the peptides was performed using a Jasco J-1500 spectropolarimeter. 100 μg/mL of peptide was used in each experiment. Samples were allowed to equilibrate for 5 min prior to data collection at 25° C. in a 1 mm path length cuvette. Spectra were collected from 190 to 260 nm with at 20 nm/min, a data integration time of 4 seconds and a 1 nm bandwidth. Data shown represents the average of four spectra. The peptides were analyzed in 10 mM sodium phosphate buffer (6.12 mM sodium monohydrogen phosphate heptahydrate; 3.92 mM monosodium phosphate anhydrous; pH 7.4), 50% (v/v) trifluoroethanol (TFE) in phosphate buffer, or 60 mM sodium dodecyl sulfate (SDS) in phosphate buffer. Percent contribution to secondary structure was measured using methods described in Raussens, V. et al. (Analytical Biochemistry, 319(1):114-21 (2003)).
The secondary structures of many CAMPs are disordered in the absence of anionic membranes or micelles, but adopt more defined secondary structures in their presence. To detect and measure any changes that the DRGN peptides may undergo based on environment, we studied their structural properties in 10 mM phosphate buffer as a negative control, 60 mM SDS in 10 mM phosphate buffer and 50% 2,2,2-Trifluoroethanol (TFE) in 10 mM phosphate buffer. Phosphate buffer without SDS or TFE provided an environment for studying the conformational properties of the peptides structure in the absence a micelle or membrane. Sodium dodecyl sulfate is an anionic surfactant that can form micelles in aqueous buffers mimicking bacterial membranes and simulating the effects an anionic membrane can have on the conformations of antimicrobial peptides. Addition of trifluoroethanol to aqueous buffer promotes increased structure, usually helicity, in peptides with suitable sequences.

Molecule	MIC (μM) ([1]; CLSI protocol in CA-MHB) [µM]	MIC (μg/mL) ([1]; CLSI protocol in CA-MHB) [µg/mL]	MIC (μM) [1] [µM]	MIC (μg/mL) [1] [µg/mL]	also measured
Colistin [reference compound]	3.46	4	–	–	–
FRWRRFFRKAKRFLKRHGVSIAIGTVRLLRRFG [VK-CATH4.1]	7.7	32	–	–	–
Ac-FRWRRFFRKAKRFLKRHAVSIAIGTVRLLRRFG-NH2 [DRGN-3]	7.6	32	–	–	–
RRWRRFFRKAKRIIG-NH2 [DRGN-11]	–	–	>31	>64	Antibacterial activity against CRKP (in words) [1]: virtually inactive
RRWRRFFRKAKRLLRRFG-NH2 [DRGN-9]	–	–	6.4	16	Increase in MIC compared to unmodified counterpart DRGN-8 ([1]; C-terminal amidation, decreased effectiveness): 2 fold
CN(C)c1cc(NC(=O)CNC(C)(C)C)c(O)c2c1C[C@H]1C[C@H]3[C@H](N(C)C)C(O)=C(C(N)=O)C(=O)[C@@]3(O)C(O)=C1C2=O [tigecycline, reference compound]	–	–	–	–	Survival of CRKP infected caterpillars (CRKP infected waxworms; control antibiotic injected): 100%
RRWRRFFRKAKRLLRRFG [DRGN-8]	–	–	3.2	8	Toxicity of peptide alone in waxworm (G. mellonella): none of the peptides DRGN-6, -7 and -8 alone caused toxicity
RRWRRFFQKAKRLLRRFG [DRGN-6]	–	–	1.6	4	Toxicity of peptide alone in waxworm (G. mellonella): none of the peptides DRGN-6, -7 and -8 alone caused toxicity
Ac-FRWRRFFRKAKRFLKRHGVSIAIGTVRLLRRFG-NH2 [DRGN-5]	7.7	32	–	–	–
CC[C@H](C)[C@H](NC(=O)[C@H](CCCCN)NC(=O)[C@H](CCC(=O)O)NC(=O)[C@H](CCCCN)NC(=O)[C@H](CO)NC(=O)[C@H](CCCCN)NC(=O)[C@H](CCCNC(=N)N)NC(=O)[C@H](Cc1ccccc1)NC(=O)[C@H](Cc1ccccc1)NC(=O)[C@H](CC(=O)O)NC(=O)CNC(=O)[C@H](CC(C)C)NC(=O)[C@@H](N)CC(C)C)C(=O)NCC(=O)N[C@@H](CCCCN)C(=O)N[C@@H](CCC(=O)O)C(=O)N[C@@H](Cc1ccccc1)C(=O)N[C@@H](CCCCN)C(=O)N[C@@H](CCCNC(=N)N)C(=O)N[C@H](C(=O)N[C@H](C(=O)N[C@@H](CCC(N)=O)C(=O)N[C@@H](CCCNC(=N)N)C(=O)N[C@H](C(=O)N[C@@H](CCCCN)C(=O)N[C@@H](CC(=O)O)C(=O)N[C@@H](Cc1ccccc1)C(=O)N[C@@H](CC(C)C)C(=O)N[C@@H](CCCNC(=N)N)C(=O)N[C@@H](CC(N)=O)C(=O)N[C@@H](CC(C)C)C(=O)N[C@H](C(=O)N1CCC[C@H]1C(=O)N[C@@H](CCCNC(=N)N)C(=O)N[C@H](C(=O)N[C@@H](CCC(=O)O)C(=O)N[C@@H](CO)C(=O)O)[C@@H](C)O)C(C)C)[C@@H](C)CC)C(C)C)[C@@H](C)CC [LL-37, reference compound]	>14	>64	–	–	Antibacterial activity against CRKP (in words) [1]: very little antibacterial activity
RRWRRFFQKAKRFVKRHGVSIAVGAYRIIG [VK-CATH4.2]	–	32	8.7	–	–
H-FRWRRFFRKAKRFLKRHAVSIAIGTVRLLRRFG-OH [DRGN-2]	7.7	32	–	–	–
H-RRWRRFFQKAKRLLRRFG-NH2 [DRGN-7]	–	–	1.6	4	Change of MIC compared to DRGN-6 ([1]; increase = decreased effectiveness): no effect on MIC; Membrane depolarization, DiSC3(5) [2]: significant depolarization at all concentrations tested; Percent alpha-helicity, 10 mM phosphate buffer ([3]; 10 mM phosphate buffer): 3.0%; Percent alpha-helicity, SDS ([3]; 60 mM SDS in 10 mM phosphate buffer): 77.0%; Percent alpha-helicity, TFE ([3]; 50% TFE in 10 mM phosphate buffer): 72.6%; Survival benefit in CRKP infected waxworms (CRKP infected waxworms; single injection 30 min after infection): no survival benefit was observed; Toxicity of peptide alone in waxworm (G. mellonella): none of the peptides DRGN-6, -7 and -8 alone caused toxicity
RRWRRFFRKAKRIIG-OH [DRGN-10]	–	–	>31	>64	Antibacterial activity against CRKP (in words) [1]: virtually inactive
